Like-named read-outs stand apart in the source and are kept apart here.
Columns and labels:
[1] = tested on: FOXC2-expressing HMLER cells; assay: Cell Titer Glo viability of FOXC2-HMLER cells (high throughput screen and 10-point response); format: cell-based; conditions: Homo sapiens
Procedure, shortened: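 Viability after 72 h compound exposure was measured as Cell Titer Glo luminescence. FOXC2-HMLER and parental HMLER cells, 1,000 per well in MEGM medium, were dosed 1 h after plating; screening concentration was 2 μM.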

control HMLER cells = assay: Cell Titer Glo viability of control HMLER cells; format: cell-based; conditions: Homo sapiens; 72-hour incubation; read-out: HMLER IC50
From the text: An engineered cancer cell line HMLER as an isogenic screening system was employed to identify compounds that are selectively toxic to the FOXC2 positive genotype. HMLER cells are derived from mammary epithelial cells (HMECs), but are virally transformed with the […] oncogene (G12V), human telomerase reverse transcriptase (hTERT), and SV40 large-T antigen (B. Elenbaas, B. et al. Genes Dev. 15 (2001) 50-65). Expression of these genes endows HMLER cells with functional immortality and tumorigenic potential at high seeding number (>10^6 cells; Hollier (2013)). […]
For high throughput screening, FOXC2-HMLER and HMLER cells were plated at 10^3 cells per well in white 384-well plates in 50 μL of MEGM medium (Lonza). […] After 72-hour incubation, 30 μL of a Cell Titer Glo solution (diluted 1:6 in water, Promega) was dispensed into each well and luminance values were recorded using an Envision plate reader. […]
More specifically, in the high throughput screening assay above, each cell line was plated at 1,000 cells per well in 384-well plates, treated for 72 hours with 2 μM of test compound, and the viability of each line was determined in parallel by Cell Titer Glo (Promega) luminance measurements. […]

VIM = biological target: T1, VIM (Homo sapiens, UniProt P08670); assay: Immunofluorescent analysis of VIM filamentous architecture in HUVECs; format: cell-based; conditions: one-hour treatment
T1 construct: endogenous in cells; host or cells: FOXC2-HMLER
T1 sequence (P08670 whole entry): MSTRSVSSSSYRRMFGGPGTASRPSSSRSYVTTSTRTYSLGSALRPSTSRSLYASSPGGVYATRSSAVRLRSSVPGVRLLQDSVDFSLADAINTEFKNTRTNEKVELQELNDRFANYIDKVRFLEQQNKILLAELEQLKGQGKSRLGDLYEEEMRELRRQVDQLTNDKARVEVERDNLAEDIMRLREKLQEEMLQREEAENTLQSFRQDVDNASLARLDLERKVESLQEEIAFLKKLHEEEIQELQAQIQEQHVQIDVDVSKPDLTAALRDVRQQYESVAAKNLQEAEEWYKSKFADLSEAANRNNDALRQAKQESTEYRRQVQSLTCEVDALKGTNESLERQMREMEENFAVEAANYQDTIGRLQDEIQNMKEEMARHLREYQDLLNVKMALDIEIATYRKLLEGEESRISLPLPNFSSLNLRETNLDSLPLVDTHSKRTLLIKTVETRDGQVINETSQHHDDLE

FOXC2-HMLER cells = assay: Confocal imaging of thymidine synced FOXC2-HMLER cells at metaphase; format: cell-based, human
From the text: Because Compound 1 induces a hyper-phosphorylated VIM phenotype, we sought to determine if Compound 1's engagement of VIM might interfere at an alternative stage of mitosis. We therefore performed time course confocal imaging studies of Compound 1 treated FOXC2-HMLER cells after their release from thymidine blocking-based cell cycle synchronization.
Compound 1 treatment also disrupted the ability of β-tubulin to faithfully form the fine spindle microtubules of the mitotic spindle, instead resulting in a compressed phenotype with radiating projections connecting unaligned chromosomes. To assess the uniqueness of this phenotype, we evaluated the metaphase phenotypes of other chemical inhibitors which have shown to alter mitotic progression. These included inhibitors of centromere-associated protein E (CENP-E, also called kinesin-7, GSK92395), kinesin spindle protein (KSP, also called Eg5, Ispinesib), polo like kinases (PLK1/2/3, BI2536), and aurora kinases (AURKA/B/C, VX-680).

[2] = tested on: FOXC2-HMLER, SNAIL-HMLER, SUM159, and MDA-MB-231 cells; assay: In vitro mammosphere formation assay; format: cell-based, human; conditions: 1 μM compound during assay (14 days)
Experimental: FIG. 3: Quantification of mammospheres from an in vitro mammosphere formation assay with the indicated cell types. Pretreatment indicates a 72-hour treatment with 1 μM Compound 1 before plating in mammosphere formation conditions. The expression “during assay” indicates 1 μM compound treatment during the mammosphere assay (14 days) (n=3, mean and s.d.).
Epithelial-mesenchymal transition (EMT) induction endows breast cancer cells with the ability to grow as mammospheres in culture (Mani (2008)).

[3] = tested on: SNAIL-HMLE, MDA-MB-231, and SUM159; assay: Growth inhibition of additional mesenchymal breast cancer cell lines; format: cell-based, human; conditions: MDA-MB-231, SUM159, express FOXC2 from endogenous locus
From the text: The propagation conditions and generation of FOXC2-HMLER, HMLER, SNAIL-HMLER, SNAIL-HMLE, and SUM159 cells have been described previously (Mani (2008)). MCF-7, HepG2, HCT116, and MDA-MB-231 cells were from ATCC and maintained in DMEM medium (Corning) supplemented with 10% FBS (Corning) with Anti-anti (Gibco). The soft tissue sarcoma cell line panel was purchased from ATCC (TCP-1019) and maintained in the recommended medium for each cell type. HUVEC cells (pooled donor) were maintained in EBM-2 medium (both from Lonza Walkersville). Primary human lung fibroblasts were maintained in Fibroblast Medium (both from Sciencell Research Laboratories). For cell growth experiments, HLFs were grown in DMEM supplemented with 2% FBS and Anti-anti. For all experiments, primary human cells were used at a passage no greater than 4.
For high throughput screening, FOXC2-HMLER and HMLER cells were plated at 10^3 cells per well in white 384-well plates in 50 μL of MEGM medium (Lonza). Cells were allowed to attach for one hour before compound was transferred to each well as a DMSO solution using a 100 nL pintool head affixed to a PerkinElmer FX instrument. After 72-hour incubation, 30 μL of a Cell Titer Glo solution (diluted 1:6 in water, Promega) was dispensed into each well and luminance values were recorded using an Envision plate reader. […]

For `Clc1cccc(N2CCN(c3cnnc4c(Cl)cccc34)CC2)c1` [Compound 1, 8-chloro-4-(4-(3-chlorophenyl)piperazin-1-yl)cinnoline], the IC50 ([1]; 72-hour incubation, read-out: FOXC2-HMLER IC50) was 0.234 µM, the IC50 ([1]; scored relative to parent compound 1, 72 hours, read-out: Activity Score, inhibition of FOXC2-expressing HMLER cells by Formula I compounds) was < 1 µM and the IC50 (control HMLER cells) was > 20 µM. The “VIM filamentous architecture in HUVECs” value (VIM) was “promoted the destruction of fine VIM-containing filamentous structures”, the “VIM filamentous structure at metaphase” value (FOXC2-HMLER cells) was “collapsed VIM filamentous structure” and the “chromosome alignment to the metaphase plate” value (FOXC2-HMLER cells) was “inhibited the ability of chromosomes to align to the metaphase plate”. The “ability to form mammospheres in culture” value [2] was “inhibited the ability” and the “growth of additional mesenchymal breast cancer cell lines” value [3] was “inhibit the growth”.
